From ChEMBL document CHEMBL1145275, “Dihydroindenoisoquinolines function as prodrugs of indenoisoquinolines” (2005)
One block for each compound: values may come before it.

Assays:
Cell line = assay: Mean graph midpoint for growth inhibition of all human cancer cell lines; format: functional
[1] = molecular target: T1, DNA topoisomerase 1 (Homo sapiens) (UniProt P11387); assay: Concentration tested for Top1-mediated DNA cleavage;+: weak activity; format: functional
T1 sequence (whole entry): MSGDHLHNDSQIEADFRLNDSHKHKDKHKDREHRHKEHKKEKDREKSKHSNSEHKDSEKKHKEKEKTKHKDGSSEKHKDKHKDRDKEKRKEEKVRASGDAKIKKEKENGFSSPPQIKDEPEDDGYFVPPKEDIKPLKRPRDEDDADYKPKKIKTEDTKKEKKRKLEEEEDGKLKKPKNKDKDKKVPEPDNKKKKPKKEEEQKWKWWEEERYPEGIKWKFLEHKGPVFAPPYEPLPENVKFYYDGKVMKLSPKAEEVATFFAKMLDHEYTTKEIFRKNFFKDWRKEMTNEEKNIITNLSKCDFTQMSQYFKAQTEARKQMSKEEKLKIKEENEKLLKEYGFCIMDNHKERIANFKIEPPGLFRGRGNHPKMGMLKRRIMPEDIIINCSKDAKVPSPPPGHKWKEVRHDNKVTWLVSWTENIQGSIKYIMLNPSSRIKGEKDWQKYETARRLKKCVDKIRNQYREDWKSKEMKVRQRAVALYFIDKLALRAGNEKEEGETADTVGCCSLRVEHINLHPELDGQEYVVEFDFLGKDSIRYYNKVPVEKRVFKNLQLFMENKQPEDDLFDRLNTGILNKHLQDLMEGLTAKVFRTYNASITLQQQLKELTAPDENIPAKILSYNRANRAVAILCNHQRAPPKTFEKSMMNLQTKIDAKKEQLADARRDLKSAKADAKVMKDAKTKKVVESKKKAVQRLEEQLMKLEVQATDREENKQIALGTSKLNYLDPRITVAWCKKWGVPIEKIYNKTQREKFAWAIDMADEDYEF

[2] = molecular target: T1, DNA topoisomerase 1 (Homo sapiens); assay: Concentration tested for Top1-mediated DNA cleavage (concentration taken upto 100 uM);0: no activity; format: functional
[3] = (§1) Growth inhibition against Melanoma UACC-62 cell line; format: functional, Homo sapiens
HOP-62 = assay: Growth inhibition against Lung HOP-62 cell line; format: functional; settings: Homo sapiens
[4] = (§2) Growth inhibition against Breast MDA-MB-435 cell line; format: functional; settings: Homo sapiens
[5] = Growth inhibition against CNS SF-539 cell line; format: functional; settings: Homo sapiens
[6] = Growth inhibition against Renal SN12C cell line; format: functional; settings: Homo sapiens
[7] = molecular target: T1, DNA topoisomerase 1 (Homo sapiens); assay: Concentration tested for Top1-mediated DNA cleavage (concentration taken upto 100 uM); ++: similar activity as the parent compound 3a; format: functional
[8] = Growth inhibition against Colon HCT116 cell line; format: functional, Homo sapiens, HCT-116
OVCAR-3 [9] = assay: Growth inhibition against Ovarian OVCAR-3 cell line; format: functional; settings: Homo sapiens
HCT-116 [10] = assay: Growth inhibition against HCT116 V cell line; format: functional; settings: Homo sapiens
HCT-116 [11] = assay: Ratio of the growth inhibition for Top1 siRNA cells (HCT116-Top1) to that for the vector-control cells (HCT116-V); Value expressed as RF (resistance factor); format: functional, Homo sapiens
[12] = molecular target: T1, DNA topoisomerase 1 (Homo sapiens); assay: Concentration tested for Top1-mediated DNA cleavage (concentration taken upto 100 uM); format: functional
[13] = Ratio of the growth inhibition for P388/CPT 45 resistant cells to that of parental cells; Value expressed as RF (resistance factor); format: functional, Homo sapiens
HCT-116 [14] = assay: Growth inhibition against HCT116 cell line; format: functional; settings: Homo sapiens
HCT-116 [15] = assay: Ratio of the growth inhibition for HCT116 Top1 resistant cells to that of parental cells; Value expressed as RF (resistance factor); format: functional, Homo sapiens
HCT-116 [16] = assay: Ratio of the growth inhibition for HCT116 resistant cells to that of parental cells; Value expressed as RF (resistance factor); format: functional, Homo sapiens
HCT-116 [17] = assay: Growth inhibition against HCT116 DNA topoisomerase 1 in (Top1-deficient and parental tumor cells); format: functional; settings: Homo sapiens
[18] = Growth inhibition against P388 cell line in; format: functional
DU-145 [19] = assay: Growth inhibition against Prostate DU-145 cell line; format: functional; settings: Homo sapiens
P388 [20] = assay: Growth inhibition against P388 cell line; format: functional; settings: Mus musculus
P388 [21] = assay: Ratio of the growth inhibition for P388 resistant cells to that of parental cells; Value expressed as RF (resistance factor); format: functional, Homo sapiens
[22] = molecular target: T1, DNA topoisomerase 1 (Homo sapiens); assay: Concentration tested for Top1-mediated DNA cleavage (concentration taken upto 100 uM);+: weak activity; format: functional
[23] = molecular target: T1, DNA topoisomerase 1 (Homo sapiens); assay: Concentration tested for Top1-mediated DNA cleavage (concentration taken upto 100 uM); +++: Good activity; format: functional
OVCAR-3 [24] = assay: Growth inhibition against OvarianOVCAR-3 cell line; format: functional; settings: Homo sapiens
SF-539 = assay: Growth inhibition against CNSSF-539 cell line; format: functional; settings: Homo sapiens
DU-145 [25] = assay: Growth inhibition against ProstateDU-145 cell line; format: functional; settings: Homo sapiens
MDA-MB-435 = assay: as §2; format: functional; settings: Homo sapiens
[26] = Growth inhibition against ColonHCT-116 cell line; format: functional; settings: Homo sapiens
UACC-62 = assay: as §1; format: functional; settings: Homo sapiens

Compound: C=CCN1C(=O)c2cc(OC)c(OC)cc2[C@H]2C(=O)c3cc4c(cc3[C@H]21)OCO4
MGM (Cell line): 0.98 µM | Concentration [2]: 100 µM

Compound: COc1cc2c(cc1OC)[C@@]1(C)C(=O)c3cc4c(cc3[C@H]1N(C)C2=O)OCO4
MGM (Cell line): 51.3 µM | GI50 [3]: 58.1 µM | GI50 ([3]; Homo sapiens, UACC-62): 82.4 µM | GI50 (HOP-62): > 100 µM | GI50 [4]: > 100 µM | GI50 [5]: 96.2 µM | GI50 [6]: 26 µM | Concentration [7]: 100 µM | GI50 [8]: 24 µM | GI50 ([8]; Homo sapiens, HCT-116): 43.5 µM

Compound: COc1cc2c(cc1OC)[C@H]1C(=O)c3cc4c(cc3[C@H]1N(C)C2=O)OCO4
GI50 (OVCAR-3 [9]): 6.7 µM | GI50 (HCT-116 [10]): 0.418 µM | RF (HCT-116 [11]): 7 | Concentration [12]: 100 µM | MGM (Cell line): 5 µM | RF [13]: 128 | GI50 ([3]; Homo sapiens, UACC-62): 0.42 µM | GI50 (HCT-116 [14]): 0.0599 µM | RF (HCT-116 [15]): 35 | RF (HCT-116 [16]): 1 | GI50 (HOP-62): 9.4 µM | GI50 (HCT-116 [17]): 0.012 µM | GI50 [18]: 1.26 µM | GI50 [4]: 17 µM | GI50 (DU-145 [19]): 4.1 µM | GI50 (P388 [20]): 0.00988 µM | GI50 [5]: 3.1 µM | GI50 [6]: 2.1 µM | RF (P388 [21]): 1 | GI50 ([8]; Homo sapiens, HCT-116): 2 µM

Compound: COc1cc2c3c(n(C)c(=O)c2cc1OC)-c1cc2c(cc1C3=O)OCO2
GI50 (OVCAR-3 [24]): 73 µM | MGM (Cell line): 20 µM | GI50 (SF-539): 41 µM | GI50 (DU-145 [25]): 37 µM | GI50 (HOP-62): 1.3 µM | GI50 (MDA-MB-435): 96 µM | GI50 [6]: 68 µM | GI50 [26]: 35 µM | Concentration [7]: 100 µM | GI50 (UACC-62): 4.2 µM

Continued, in another order:

Concentration [1]: 100 µM
Compound: O=C1c2cc3c(cc2[C@@H]2[C@H]1c1ccc([N+](=O)[O-])cc1C(=O)N2CCCCl)OCO3
MGM (Cell line): 0.018 µM

Concentration [22]: 100 µM
Compound: C=CCn1c2c(c3cc(OC)c(OC)cc3c1=O)C(=O)c1cc3c(cc1-2)OCO3
MGM (Cell line): 4.16 µM

Concentration [23]: 100 µM
Compound: O=C1c2cc3c(cc2-c2c1c1ccc([N+](=O)[O-])cc1c(=O)n2CCCCl)OCO3
MGM (Cell line): 0.83 µM
